Legend:
aggregation of platelet = test: Experiment of resisting platelet aggregation (ADP-induced, platelet-rich plasma, absorbance at 600 nm); type: cell-based, rabbit; conditions: for IC50: Oryctolagus cuniculus, rabbit platelet-rich plasma, ADP final concentration of 4 μmol/L, read-out: IC50 (50% inhibitory concentration) on aggregation of platelet
Procedure: Experiment of resisting platelet aggregation with the ligustrazine aromatic acid ether derivatives: Anaesthetizing intravenously a rabbit with 3% pentobarbital sodium, separating arteria carotis communis and taking blood by inserting a pipe, using 3.8% sodium citrate solution (dissolving 3.8 g sodium citrate with distilled water, up to 100 mL, filtering, bottling, sterilizing under 121° C. and high pressure for 15 min) as an anticoagulant (1:9), 1000 r/min, centrifuging for 5 min to prepare platelet-rich plasma (PRP), 3000 r/min, centrifuging for 15 min to prepare platelet-poor plasma (PPP). Cultivating the PRP under 37° C. in a silicified cuvette for 5 min, measuring absorbance (A) at 600 nm, adjusting the absorbance of the PRP to 0.6-0.7 with the PPP, adding 1.7 mL adjusted PRP into another silicified cuvette, adding 200 μL of the test drug, measuring the absorbance at 600 nm before adding […], then adding 100 μL of ADP (final concentration of 4 μmol/L), respectively measuring the absorbance when 2 and 5 min after adding the ADP, calculating aggregation rate (AR) by the following formula: AR=(A before adding the ADP−A after adding the ADP)/A before adding the ADP (100%.). At the same time, calculating aggregation inhibition rate (AIR) of the tested drug to platelet: AIR=[1−(aggregation percentage in administrated tube/aggregation percentage in contrast tube)]×100. Calculating 50% inhibitory concentration (IC50) of the tested drug, referring to table 2.

| SMILES | IC50 (aggregation of platelet) | melting point | antiplatelet aggregative activity compared with Ozagrel positive drug (in words) (aggregation of platelet; rabbit PRP, ADP) | antiplatelet aggregative activity relative to Ozagrel (aggregation of platelet; ratio to Ozagrel positive drug, rabbit PRP, ADP) |
| --- | --- | --- | --- | --- |
| COc1cc(C(=O)O)ccc1OCc1nc(C)c(C)nc1C [Example 5, 4-((3,5,6-trimethylpyrazine-2-yl)methoxyl)-3-methoxybenzoic acid] |  | 183 to 185 °C |  |  |
| O=C(O)/C=C/c1ccc(Cn2ccnc2)cc1 [Ozagrel, reference compound] | 1600 µM |  |  |  |
| COc1cc(C(=O)O)cc(OC)c1OCc1nc(C)c(C)nc1C [Example 2, 4-((3,5,6-trimethylpyrazine-2-yl)methoxyl)-3,5-dimethoxybenzoic acid] |  | > 218 °C (dec.) |  |  |

The next lines start with results.

| IC50 (aggregation of platelet) | melting point | SMILES | antiplatelet aggregative activity compared with Ozagrel positive drug (in words) (aggregation of platelet; rabbit PRP, ADP) | antiplatelet aggregative activity relative to Ozagrel (aggregation of platelet; ratio to Ozagrel positive drug, rabbit PRP, ADP) |
| --- | --- | --- | --- | --- |
| 280 µM | 156 to 158 °C | COc1cc(/C=C/C(=O)O)ccc1OCc1nc(C)c(C)nc1C [MC2, (E)-3-(4-((3,5,6-Trimethylpyrazin-2-yl)methoxy)-3-methoxyphenyl)acrylic acid] | stronger than Ozagrel | 5.7 times |
| 1000 µM | 190 to 192 °C | COc1ccc(C(=O)O)cc1OCc1nc(C)c(C)nc1C [MC5, 3-((3,5,6-trimethylpyrazine-2-yl)methoxyl)-4-methoxybenzoic acid] | stronger than Ozagrel |  |
| 1360 µM | 179 to 181 °C | Cc1nc(C)c(COc2ccc(C(=O)O)cc2)nc1C [MC1, 4-((3,5,6-trimethylpyrazine-2-yl)methoxyl)benzoic acid] | stronger than Ozagrel |  |

Reference: patent US8350033B2, “4-((3, 5, 6-trimethylpyrazine-2-yl) methoxyl) benzoic acid and its derivatives” (priority 2007, dated 2013)
